# From patent publication US6492344B1, “Syndecan enhancer element and syndecan stimulation of cellular differentiation” (Biotie Therapies Corp., priority 1993, dated 2002)
# Test system: syndecan-1 expression in 3T3 cells
# Assay: Quantitation of cell surface syndecan in 3T3 cells exposed to growth factors
# Assay type: cell-based, mouse
# Conditions: FGF-2 administered alone
# Experimental: Growth factors enhance syndecan expression. NMuMG mouse mammary epithelial cells and 3T3 (NIH) mouse fibroblasts were routinely cultured in bicarbonate-buffered Dulbecco's modified Eagle's medium (DMEM; GIBCO) containing 10% FCS (GIBCO) and antibiotics, as previously described (Elenius et al., J. Biol. Chem. 265:17837-17843 (1990)). For experiments, cells were plated at equal density on culture dishes (Nunc) and grown to 60-70% confluency. Twenty-four hours before supplementing the medium with growth factor(s), the medium on the cells was replaced with fresh medium containing 2% CMS-FCS (Vogel et al., Proc. Natl. Acad. Sci. USA 75:2810-2814 (1978)). Equally treated cultures without growth factor addition served as negative controls. […] For quantitation and isolation of cell surface syndecan, media were discarded at time points indicated in the text and the cell layers were washed twice with ice cold phosphate buffered saline (PBS). […] After subsequent washes by resuspension and centrifugation the cell numbers were measured by counting the nuclei with a Coulter Counter (Coulter Electronics).
# For quantitation of syndecan intercalated into the cell membrane, syndecan ectodomain was released by incubating washed cells in 20 μg/ml bovine pancreatic trypsin (Type III; Sigma) in PBS for 10 min on ice bath. […]
substance,measurement,value
FGF-2: Basic fibroblast growth factor (FGF-2 or bFGF); recombinant human,syndecan-1 expression,shows enhancement of syndecan-1 expression
